Reference: the supplement of paper PMC10331698
± gives the standard deviation of the averaged measurements.

Key:
Test in all cases: level (log10 ratio to DMSO vehicle control); higher = higher biomarker level / cell amount than vehicle control
Conditions in all cases: in DMSO
[1] = compound: O=C(O)C(F)(F)C(F)(F)C(=O)O [Tetrafluorosuccinic acid]
Protocol: (§1)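 BioMAP Diversity Plus panel of 12 human primary cell co-culture systems (3C, 4H, LPS, SAg, BT, BF4T, BE3C, CASM3C, HDF3CGF, KF3CT, MyoF, Mphg). Compounds were added 1 h before stimulation and left for 24 h (MyoF 48 h; BT 72 h for soluble read-outs or 6 d for IgG). Biomarkers were read by ELISA, cytotoxicity by SRB, PBMC viability and proliferation by Alamar Blue. Each well value was divided by the mean of 8 DMSO control wells on the same plate and log10 transformed; duplicate blinded samples were tested at 4 concentrations.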

[2] = compound: O=C(Cl)C(F)(F)C(F)(F)C(F)(F)C(=O)Cl [Hexafluoroglutaryl chloride]
Protocol: as §1

[3] = compound: CN(Cc1cnc2nc(N)nc(N)c2n1)c1ccc(C(=O)N[C@@H](CCC(=O)O)C(=O)O)cc1 [Methotrexate]
Protocol: as §1

[4] = compound: OCCCCC(F)(F)C(F)(F)C(F)(F)C(F)(F)F [4:4 Fluorotelomer alcohol]
Protocol: as §1

[5] = compound: O=S(=O)(OCC(F)(F)F)C(F)(F)C(F)(F)C(F)(F)C(F)(F)F [2,2,2-Trifluoroethyl perfluorobutanesulfonate]
Protocol: as §1

[6] = compound: O=S(=O)(O)CCC(F)(F)C(F)(F)C(F)(F)C(F)(F)F [4:2 Fluorotelomer sulfonic acid]
Protocol: as §1

Test System | level (log10) ([1]; 6700 nM) | level (log10) ([1]; 20000 nM) | level (log10) ([1]; 60000 nM) | level (log10) ([2]; 6700 nM) | level (log10) ([2]; 20000 nM) | level (log10) ([2]; 60000 nM) | level (log10) ([3]; 1500 nM) | level (log10) ([3]; 4400 nM) | level (log10) ([3]; 13000 nM) | level (log10) ([3]; 40000 nM) | level (log10) ([4]; 6700 nM) | level (log10) ([4]; 20000 nM) | level (log10) ([4]; 60000 nM) | level (log10) ([5]; 6700 nM) | level (log10) ([5]; 20000 nM) | level (log10) ([5]; 60000 nM) | level (log10) ([6]; 6700 nM) | level (log10) ([6]; 20000 nM) | level (log10) ([6]; 60000 nM)
BE3C:CD87/uPAR | 0.0095 ± 0.021 | -0.0045 ± 0.00071 | 0.012 ± 0.014 | -0.0055 ± 0.0021 | -0.009 ± 0.0028 | 0.011 ± 0.0085 | 0.0225 ± 0.005 | -0.0145 ± 0.011 | 0 ± 0.016 | 0.0145 ± 0.015 | 0.0075 ± 0.03 | -0.025 ± 0.016 | 0.0065 ± 0.033 | -0.048 ± 0.0099 | -0.024 ± 0.018 | -0.0355 ± 0.026 | 0.002 ± 0.02 | -0.004 ± 0.021 | -0.007 ± 0.0071
BF4T:CD90 | -0.0115 ± 0.012 | -0.015 ± 0.024 | -0.017 ± 0.0042 | 0.0005 ± 0.013 | -0.002 ± 0.018 | -0.0035 ± 0.0035 | 0.001 ± 0.0014 | -0.0145 ± 0.0035 | -0.006 ± 0.016 | 0.0235 ± 0.012 | -0.009 ± 0.013 | -0.0155 ± 0.012 | 0.0005 ± 0.018 | 0.004 ± 0.0099 | -0.007 ± 0.023 | -0.009 ± 0.011 | -0.0075 ± 0.0092 | -0.018 ± 0.0042 | -0.011 ± 0.014
SAg:PBMC Cytotoxicity | -0.002 ± 0.048 | 0.0115 ± 0.013 | 0.039 ± 0.013 | 0.0075 ± 0.0078 | -0.022 ± 0.018 | 0.0185 ± 0.021 | -0.001 ± 0.017 | 0.0015 ± 0.023 | 0.011 ± 0.018 | 0.0005 ± 0.0035 | -0.0115 ± 0.015 | 0.014 ± 0.011 | 0.0195 ± 0.03 | 0.0065 ± 0.011 | -0.013 | 0.012 ± 0.0057 | 0.0015 ± 0.013 | -0.007 ± 0.031 | 0.02 ± 0.0014
LPS:M-CSF | -0.0255 ± 0.0078 | -0.018 ± 0.014 | 0.0335 ± 0.047 | -0.014 ± 0.05 | 0.001 ± 0.0085 | -0.0105 ± 0.005 | 0.0235 ± 0.005 | 0.0035 ± 0.019 | 0.0235 ± 0.0035 | -0.0065 ± 0.03 | 0.0085 ± 0.0078 | -0.001 ± 0.017 | 0.018 ± 0.0085 | -0.01 ± 0.016 | -0.046 ± 0.02 | -0.09 ± 0.0085 | -0.0265 ± 0.049 | 0.017 ± 0.0071 | 0.0025 ± 0.005
BE3C:HLA-DR | -0.027 ± 0.0028 | -0.0045 ± 0.0035 | 0.004 ± 0.0014 | -0.0075 ± 0.013 | -0.016 ± 0.0057 | -0.007 ± 0.0071 | -0.0105 ± 0.00071 | -0.0235 ± 0.0064 | 0.013 ± 0.011 | -0.0145 ± 0.022 | -0.0005 ± 0.018 | -0.0075 ± 0.0064 | -0.0035 ± 0.016 | -0.001 ± 0.011 | 0.005 ± 0.0085 | -0.011 ± 0.0014 | -0.013 ± 0.0085 | 0.003 ± 0.0042 | -0.0225 ± 0.0021
4H:CCL26/Eotaxin-3 | 0.0025 ± 0.049 | -0.037 ± 0.064 | 0.0315 ± 0.018 | 0.016 ± 0.017 | 0.021 ± 0.027 | 0.013 ± 0.016 | -0.018 ± 0.0085 | -0.008 ± 0.011 | 0.014 ± 0.021 | -0.002 ± 0.014 | -0.017 ± 0.021 | -0.0345 ± 0.0021 | -0.025 ± 0.011 | 0.0025 ± 0.064 | 0.01 ± 0.054 | -0.0095 ± 0.074 | -0.084 ± 0.042 | -0.004 ± 0.037 | 0.0225 ± 0.037
3C:CD87/uPAR | -0.022 ± 0.024 | -0.0085 ± 0.0078 | -0.019 ± 0.033 | -0.009 ± 0.0071 | 0.0225 ± 0.022 | 0.003 ± 0.041 | 0.0005 ± 0.0092 | 0.001 ± 0.047 | 0.01 ± 0.071 | -0.0095 ± 0.013 | -0.018 ± 0.057 | -0.0155 ± 0.005 | 0.012 ± 0.0014 | 0.0115 ± 0.023 | -0.014 ± 0.035 | -0.139 ± 0.099 | -0.05 ± 0.047 | -0.017 ± 0.069 | 0.002 ± 0.058
LPS:CCL2/MCP-1 | -0.02 ± 0.0085 | -0.027 ± 0.014 | -0.0095 ± 0.043 | 0.0165 ± 0.005 | 0.008 ± 0.041 | 0.0265 ± 0.033 | -0.0335 ± 0.074 | -0.03 ± 0.055 | -0.0295 ± 0.1 | -0.0565 ± 0.064 | -0.006 ± 0.0071 | -0.002 ± 0.023 | -0.006 ± 0.011 | -0.0345 ± 0.012 | -0.0435 ± 0.022 | -0.101 ± 0.067 | 0.0065 ± 0.028 | 0.005 ± 0.0042 | 0.037 ± 0.017
BE3C:CXCL8/IL-8 | 0.0325 ± 0.052 | 0.0315 ± 0.071 | 0.0525 ± 0.0064 | 0.0585 ± 0.046 | 0.0345 ± 0.077 | 0.0555 ± 0.083 | 0.0795 ± 0.069 | 0.035 ± 0.089 | 0.053 ± 0.057 | 0.048 ± 0.11 | -0.013 ± 0.016 | -0.0155 ± 0.0021 | 0.029 ± 0.04 | 0.001 ± 0.0071 | -0.0035 ± 0.026 | 0.0225 ± 0.021 | 0.0165 ± 0.023 | -0.009 ± 0.0085 | 0.0175 ± 0.0064
LPS:sTNF-alpha | -0.0025 ± 0.018 | 0.0025 ± 0.011 | 0.009 ± 0.011 | 0.046 ± 0.023 | 0.033 ± 0.0085 | 0.0465 ± 0.012 | 0.0165 ± 0.033 | 0 ± 0.079 | -0.045 ± 0.024 | -0.0525 ± 0.069 | 0.0195 ± 0.11 | 0.0205 ± 0.12 | 0.0155 ± 0.14 | -0.0075 ± 0.043 | -0.0745 ± 0.076 | -0.225 ± 0.018 | -0.0105 ± 0.011 | -0.007 ± 0.0014 | -0.0065 ± 0.0035
4H:CD87/uPAR | -0.0355 ± 0.025 | -0.043 ± 0.035 | -0.036 ± 0.089 | 0.0165 ± 0.0035 | 0.0115 ± 0.03 | 0.004 ± 0.018 | 0.0245 ± 0.029 | -0.014 ± 0.031 | -0.0105 ± 0.033 | 0.0185 ± 0.03 | -0.0385 ± 0.029 | -0.044 ± 0.021 | -0.0195 ± 0.013 | 0.0005 ± 0.011 | 0.001 ± 0.0099 | -0.0095 ± 0.039 | 0.0185 ± 0.0078 | 0.003 ± 0.0085 | -0.031 ± 0.024
SAg:CD69 | 0.012 ± 0.061 | 0.0055 ± 0.025 | 0.023 ± 0.02 | -0.009 ± 0.021 | -0.02 ± 0.018 | -0.015 ± 0.0028 | -0.001 ± 0.0085 | -0.033 ± 0.024 | -0.0185 ± 0.061 | -0.003 ± 0.04 | 0.009 ± 0.0057 | -0.002 ± 0.0028 | 0.001 ± 0.02 | -0.0025 ± 0.0092 | -0.0175 ± 0.025 | -0.049 ± 0.042 | -0.023 ± 0.027 | -0.0165 ± 0.028 | -0.028 ± 0.037
BF4T:CD106/VCAM-1 | 0.0205 ± 0.0092 | -0.0155 ± 0.029 | -0.033 ± 0.021 | -0.0385 ± 0.039 | -0.022 ± 0.058 | -0.058 ± 0.0085 | 0.014 ± 0.024 | 0.0165 ± 0.029 | 0.0245 ± 0.016 | 0.0245 ± 0.011 | -0.0145 ± 0.0064 | -0.0205 ± 0.018 | 0.0135 ± 0.043 | -0.0135 ± 0.07 | -0.0035 ± 0.074 | -0.049 ± 0.027 | -0.0045 ± 0.0078 | -0.018 ± 0.0028 | 0.0085 ± 0.046
LPS:CD141/Thrombomodulin | 0.019 ± 0.1 | 0.043 ± 0.057 | 0.04 ± 0.047 | -0.0035 ± 0.066 | -0.017 ± 0.028 | -0.017 ± 0.021 | 0.016 ± 0.03 | -0.0155 ± 0.036 | 0.0085 ± 0.015 | -0.0025 ± 0.023 | 0.0135 ± 0.032 | 0.0215 ± 0.0078 | 0.007 ± 0.0085 | -0.0075 ± 0.03 | 0.0145 ± 0.04 | 0.067 ± 0.025 | 0.0215 ± 0.039 | 0.0345 ± 0.044 | 0.0755 ± 0.032
BF4T:CCL2/MCP-1 | -0.007 ± 0.0028 | -0.0135 ± 0.0064 | -0.0215 ± 0.016 | -0.0225 ± 0.00071 | -0.009 ± 0.0028 | -0.0185 ± 0.005 | 0.0115 ± 0.022 | 0.0135 ± 0.0035 | -0.022 ± 0.0028 | 0.0055 ± 0.029 | 0.0115 ± 0.044 | 0.007 ± 0.024 | 0.048 ± 0.099 | 0.024 ± 0.0028 | 0.0125 ± 0.005 | 0.017 ± 0.021 | 0.0145 ± 0.037 | 0.0075 ± 0.00071 | 0.0395 ± 0.022
